Test results published in patent US5753681A, “Treatment and prophylaxis of pancreatitis” (Sankyo Company, Limited, priority 1996, dated 1998).
Where two headings read alike, the source gives them in different places.

What was measured:
[1] = format: in vivo, Wistar-Imamichi rats; settings: 170 mg/kg/day
Text: (§1) Since the decrease in the amount of pancreatic parenchyma resulting from chronic pancreatitis causes loss of pancreatic weight, any suppression of the decrease in the amount of pancreatic parenchyma can be used as an index for evaluating any improvement in the pancreatitis. Furthermore, since degeneration and necrosis of the pancreatic parenchyma and its replacement by connective tissue occurs in chronic pancreatitis, the seriousness of the pancreatitis can be estimated by histopathologically measuring the area over which the pancreatic parenchyma is replaced with connective tissue (known as the "cicatrized area").
(§2) Measurement of the weight of the pancreas may be carried out by conventional procedures after the experimental animals have been sacrificed by phlebotomy.
The effects of pancreatitis may be simulated, as is conventional, in experimental animals, by the administration of streptozotocin [(N-methylnitroso-carbamoyl)-D-glucosamine: R. A. Bennett et al., Cancer Res., 41, 2786-2790, (1981); a product of Sigma Chemical Company], which is capable of specifically destroying the Langerhans islet B cells and which thus induces a decrease in pancreatic weight. Streptozotocin is administered intravenously to the experimental animal, and then a powdered feed admixed with a test compound is given to a group of animals which have been dosed with streptozotocin. This group is hereafter referred to as the "treated group". Meanwhile, a powdered feed only is given to another group of animals which have been dosed with streptozotocin. This group is hereafter referred to as the "control group". Normal animals (undosed) fed with the feed only are also used as a blank group against the experimental animals (dosed with streptozotocin). After the test compounds have been administered to the animals for a predetermined period, each animal is sacrificed to measure its pancreatic weight. […]
Meanwhile, another group of rats was fed with the powdered feed F2 only. […] After a predetermined period, the rats were sacrificed and the pancreatic weight of each animal was measured.

plasma lipase = assay: Effect of long term treatment on plasma lipase activity; format: in vivo, male WBN/Kob rats; settings: 9.5 months; for Plasma Lipase Activity: control 33.7 ± 7.8
Text: In pancreatitis, secretion of digestive enzymes is impaired and delivery of digestive enzymes to the duodenum is reduced. In addition, digestive enzymes leak into the blood and their level in the blood and urine increase. Accordingly, the extent of pancreatitis can be estimated by measuring the amount of digestive enzymes which have leaked into the blood (Methods of Clinical Examination: Kinbara Publisher).
The measurement of digestive enzymes may also be carried out by conventional procedures. For example, after the test drug mixed into powdered feed has been administered to male WBN/Kob rats for a definite period, the blood may be collected and the lipase activity (one of the digestive enzymes) in the plasma may be measured.
(§3) The test animals were male WBN/Kob rats. Each group of test animals contained 6 animals, and the animals were used for the experiment when they had reached 12 weeks old. The animals were fed with powdered feed F2 mixed with 0.2% or 0.05% of troglitazone for 9.5 months. These groups are hereinafter referred to as "the 0.2% group" and "the 0.05% group", respectively. The average doses of the compound during this period were 120 mg/kg/day and 30 mg/kg/day, respectively. Meanwhile, another six rats (control group) were fed with the powdered feed F2 only. After the rats had been fed with the feeds for 9.5 months, each rat was decapitated and its blood was collected. The blood serum was separated and the plasma lipase level was measured using an autoanalyser (type 7250, manufactured by Hitachi Ltd.).

[2] = Effect of long term treatment on pancreatic weight; format: in vivo, male WBN/Kob rats; settings: 9.5 months; for Pancreatic weight: control 804 ± 35
Protocol: as §3
After the blood had been collected, the pancreas of each animal was totally enucleated and weighed.

[3] = Increase in the pancreatic weight in a model of spontaneous chronic pancreatitis (3 months); format: in vivo, male WBN/Kob rats; settings: treated group, 0.2% in feed, 140 mg/kg/day, three months; control 773 ± 17; **p < 0.01 vs. control
Text: as §1, §2
The test animals were male WBN/Kob rats, which are commonly used as models of spontaneous chronic pancreatitis and suffer pancreatic weight loss and dysfunction of the exocrine pancreatic tissue due to degeneration and necrosis of the pancreatic parenchyma and its replacement by connective tissue [Tsuchitani et al., Laboratory Animals, 19(3), 200-207, (1985)]. […] After the rats had been fed with the feeds for three months, the pancreas of each animal was totally enucleated and its weight was measured.

[4] = Histopathology of pancreatic tissue of Example 2: total cross-sectional area and cicatrized area; format: in vivo, male WBN/Kob rats; settings: 0.2% in feed, three months
Text: as §1
The measurement of the cicatrized area may also be carried out by conventional procedures. More specifically, male WBN/Kob rats are used as models of spontaneous chronic pancreatitis and are fed with a powdered feed admixed with a test compound. The pancreas of each animal is then totally enucleated. Its weight is measured and also the cicatrized area is measured relative to the total cross-sectional area of the pancreas tissue sliced by an image analyser.
The test animals were male WBN/Kob rats, which are commonly used as models of spontaneous chronic pancreatitis and suffer pancreatic weight loss and dysfunction of the exocrine pancreatic tissue due to degeneration and necrosis of the pancreatic parenchyma and its replacement by connective tissue [Tsuchitani et al., Laboratory Animals, 19(3), 200-207, (1985)]. Each group of test animals contained 4 animals, and the animals were used for the experiment when they had reached 12 weeks old. The animals were fed with powdered feed F2 mixed with 0.2% of troglitazone for three months. This group is hereinafter referred to as "the treated group". The average dose of the compound during this period was 140 mg/kg/day. Meanwhile, another four rats (control group) were fed with the powdered feed F2 only. After the rats had been fed with the feeds for three months, the pancreas of each animal was totally enucleated and its weight was measured.
In order to evaluate the results of Example 2 histopathologically, each pancreas used for weight measurement in Example 2 was fixed in 10% neutral formalin. It was then divided into a spleen side half and a duodenum side half, and each half was sliced at 3 mm intervals to provide cross-sectional tissue pieces. […] The total cross-sectional area of the pancreatic tissue piece on each preparation was measured using an image analyser (SPICCAII, manufactured by Olympus Optical Co., Ltd.).
In addition, the surface area of the zone which had undergone degeneration and necrosis and in which the exocrine pancreatic tissue was replaced with connective tissue (the cicatrized area) was measured using an image analyser.

[5] = 0.05% group, 30 mg/kg/day in feed
[6] = both the 0.2% group and the 0.05% group, vs. control group

## Cc1c(C)c2c(c(C)c1O)CCC(C)(COc1ccc(CC3SC(=O)NC3=O)cc1)O2 (centres unmarked) [troglitazone, 5-[4-(6-Hydroxy-2,5,7,8-tetramethylchroman-2-ylmethoxy)benzyl]thiazolidine-2,4-dione]
[1]; 0.2% in feed, 14 days, vs. control group
  Inhibition of pancreatic weight loss (in words): significantly inhibited the pancreatic weight loss
[1]; rat, in vivo
  Lesions such as edema in the pancreas: no lesions such as edema
[1]; treated group, 0.2% in feed, 14 days, after streptozotocin 25 mg/kg i.v., normal 1333 ± 43, control 1253 ± 39, *p < 0.05 vs. control
  Pancreatic weight: 1435 ± 40 mg
Plasma lipase; [5]
  Plasma Lipase Activity: 17.5 ± 2.2 IU/l
Plasma lipase; 0.2% group, 120 mg/kg/day in feed, *p < 0.05
  Plasma Lipase Activity: 13.2 ± 1.0 IU/l
Plasma lipase; [6]
  Plasma lipase activity (in words): significant decrease
[2]; [5]
  Pancreatic weight: 906 ± 63 mg
[2]; 0.2% group, 120 mg/kg/day in feed, ***p < 0.001
  Pancreatic weight: 1164 ± 52 mg
[2]; [6]
  Pancreatic weight (in words): significant increase
[3]
  Pancreatic weight: 936 ± 27 mg
[4]; duodenum side half, control 10.84 ± 0.60, *p < 0.05
  Cicatrized area in the exocrine pancreatic tissue: 6.76 ± 1.37 mm^2
[4]; duodenum side half, control 89.5 ± 6.6
  Total cross-sectional area of pancreatic tissue piece: 132.8 ± 23.6 mm^2
[4]; spleen side pancreatic half, control 5.95 ± 0.90, *p < 0.05
  Cicatrized area in the exocrine pancreatic tissue: 3.31 ± 0.48 mm^2
[4]; spleen side pancreatic half, control 150.5 ± 4.6, *p < 0.05
  Total cross-sectional area of pancreatic tissue piece: 172.6 ± 5.3 mm^2
